The values below come from patent publication US7566737B2 (Genfit, priority 2002, dated 2009).

In one test the target is T1, human PPARα (Homo sapiens, UniProt Q07869).
T1 construct: expressed in transfected cells; host or cells: RK13 or COS-7
T1 sequence (Q07869 239-466 limits assumed): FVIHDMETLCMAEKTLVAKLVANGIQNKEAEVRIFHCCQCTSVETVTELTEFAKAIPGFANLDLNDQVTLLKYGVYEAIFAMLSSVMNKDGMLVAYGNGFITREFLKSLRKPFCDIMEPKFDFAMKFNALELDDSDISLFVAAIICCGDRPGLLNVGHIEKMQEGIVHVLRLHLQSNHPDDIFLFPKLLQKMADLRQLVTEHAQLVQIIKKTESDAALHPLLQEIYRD
Briefly: PPARα/Gal4 transactivation system. The test is classed as cell-based. Particulars: for maximum induction factor: at the 10 or 1 μm concentrations. The method, then: (§1) PPAR activation was tested in vitro in RK13 or COS-7 fibroblast cell lines by measuring the transcriptional activity of chimeras composed of the DNA binding domain of the yeast Gal4 transcription factor and the ligand binding domain of the different PPARs. These latter results were then confirmed in cell lines according to the following protocols.
(§2) Culture protocols: RK13 were from ECACC (Porton Down, UK) and were grown in DMEM medium supplemented with 10% (V/V) fetal calf serum, 100 U/ml penicillin (Gibco, Paisley, UK) and 2 mM L-glutamine (Gibco, Paisley, UK). COS-7 cells were from ATCC and were grown in DMEM medium supplemented with 10% (V/V) fetal calf serum, 1% penicillin/streptomycine (Biochrom, AG), 1% of amino acids (Gibco) and 1% sodium pyruvate (Gibco).
(§3) The culture medium was changed every two days. Cells were kept at 37° C. in a humidified 95% air/5% CO2 atmosphere.
(§4) Description of plasmids used for transfection: The plasmids Gal4(RE)_TkpGL3, pGal4-hPPARα, pGal4-hPPARγ, pGal4-hPPARδ and pGal4-φ have been described in the literature (Raspe E et al., 1999). The pGal4-hPPARα, pGal4-hPPARγ and pGal4-hPPARδ constructs were obtained by cloning into the pGal4-φ vector PCR-amplified DNA fragments corresponding to the DEF domains of the human PPARs nuclear receptors.
(§5) Transfection of RK13: RK13 cells were seeded in 24-well culture dishes at 5×10^4 cells/well and transfected for 2 hours with the reporter plasmid Gal4(RE)_TkpGL3 (50 ng/well), the expression vectors pGal4-φ, pGal4-hPPARα, pGal4-hPPARγ and pGal-hPPARδ (100 ng/well) and the transfection efficiency control vector pRL-CMV (1 ng/well) according to the previously described protocol (Raspe E, Madsen L, Lefebvre A M, Leitersdorf I, Gelman L, Peinado-Onsurbe J, Dallongeville J, Fruchart J C, Berge R and Staels B, 1999), then incubated for 36 hours with the test compounds. RK13 cells were incubated with the different compounds at concentrations of 10, 30 and 100 μM or 1, 10 and 100 μM for 24 hours. At the end of the experiment, the cells were lysed (Gibco, Paisley, UK) and luciferase activity was determined with a Dual-Luciferase™ Reporter Assay System kit (Promega, Madison, Wis., USA) according to the supplier's instructions. The protein content of the cell extracts was then measured with the Bio-Rad Protein Assay (Bio-Rad, Munich, Germany) as directed by the supplier.
(§6) Transfection of COS7: Cells in suspension are transfected, in the presence of 10% (V/V) fetal calf serum, with 150 ng of DNA per well with a pGal4-PPAR/Gal4(RE)_TkpGL3 ratio of 1/10. Cells are then seeded in 96 well plates (4×10^4 cells/well) and incubated for 24 hours at 37° C. Activation with compounds is performed on 24 hours at 37° C. in culture medium without serum. At the end of the activation period, cells are lysed and luciferase activity is determined, using the Steady Glow Luciferase Kit (Promega), according to the supplier's instructions.

For the next test, the system named is HaCat cells. Briefly: Antioxidant properties on cell cultures (carboxy-H2DCFDA fluorescence, AAPH stress), keratinocytes. Particulars: AAPH 750 μM. Format: cell-based, human. As to the method:
(§7) The reduction in the intensity of the emitted fluorescence signal was determined in cells treated with the compounds in the following manner.
(§8) Prior to stress the cells with an oxidative agent such as AAPH (CAS number 2997-92-4), cells are incubated with compounds of interest at 25 μM for 24 h. Then the culture medium is discarded and cells are rinsed two times with PBS. Cells are then incubated 30 min at 37° C. with a cell-permeant indicator for reactive oxygen species that is nonfluorescent until the acetate groups are removed by intracellular esterases and oxidation occurs within the cell 5-(and-6)-carboxy-2′,7′-dichlorodihydrofluorescein diacetate (carboxy-H2DCFDA). The probes are prepared in PBS and incubated at the final concentration of 25 μM. After the incubation with the probe, cells are rinsed and incubated another 30 min with the oxidative solution containing AAPH at 750 μM in culture medium without phenol red and serum.
(§9) The fluorescence is then measured with a fluorimeter with the following wavelength, […].
(§10) Two different cell types have been tested with the inventive compounds. Human normal primary fibroblasts and HaCat cells which are a human keratinocyte cell line.

In the next test the target is T2, human PPARγ (Homo sapiens, UniProt P37231).
T2 construct: expressed in transfected cells; host or cells: RK13 or COS-7
T2 sequence (P37231 238-503 limits assumed): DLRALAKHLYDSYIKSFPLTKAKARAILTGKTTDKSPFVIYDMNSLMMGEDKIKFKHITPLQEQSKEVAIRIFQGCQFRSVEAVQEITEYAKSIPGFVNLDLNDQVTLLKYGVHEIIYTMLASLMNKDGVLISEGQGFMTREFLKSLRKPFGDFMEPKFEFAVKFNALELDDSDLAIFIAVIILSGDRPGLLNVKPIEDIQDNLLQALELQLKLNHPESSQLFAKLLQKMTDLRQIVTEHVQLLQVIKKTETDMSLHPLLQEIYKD
Briefly: PPARγ/Gal4 transactivation system. Format: cell-based. As to the method: as §1, §2, §3, §4, §5, §6

Test [1] has as its system Human normal primary fibroblasts. Briefly: Antioxidant properties on cell cultures (carboxy-H2DCFDA fluorescence, AAPH stress), fibroblasts. Format: cell-based. The following applies: AAPH 750 μM. As to the method:
as §7, §8, §9, §10

A further test relates to LDL. The test can be described thus: Protection against LDL oxidation by copper (conjugated diene formation). Format: biochemical. Particulars: for lag phase of conjugated diene formation / rate of conjugated diene formation: 10^−4M. The method, then:
LDL oxidation is an important alteration and plays a predominant role in the establishment and development of atherosclerosis (Jurgens G et al., 1987). […] Unless otherwise indicated, the reagents were from Sigma (St Quentin, France). LDL were prepared according to the method described by (Havel R J et al., 1955). The solutions of test compounds were prepared at 10^−2 M concentration in bicarbonate buffer (pH 9) and diluted in PBS to obtain final concentrations ranging from 0.1 to 100 μM for a total ethanol concentration of […]. Prior to oxidation, EDTA was removed from the LDL preparation by dialysis. Oxidation then took place at 30° C. by addition of 100 μl of 16.6 μM CuSO4 solution to 160 μL of LDL (125 μg protein/ml) and 20 μl of a test compound solution. The formation of dienes, the species under observation, was followed by measuring optical density at 234 nm in the samples treated with the compounds but in the presence or absence of copper. Optical density at 234 nm was measured every 10 minutes for 8 hours in a thermostated spectrophotometer (Tecan Ultra 380). The compounds were considered to have antioxidant activity when they induced a longer lag phase and reduced the rate of oxidation and the amount of dienes formed in comparison with the control sample.

The subject of test [2] is hApoE2 Knock-in transgenic mice. The test can be described thus: Effects on triglycerides and cholesterol metabolism in vivo. Details: species or system mouse. The method, then: Treatment of animals: hApoE2 knock-in transgenic mice were kept on a 12-hour light/dark cycle at a constant temperature of 20±3° C. After a 1 week acclimation, mice were separated in groups of 6 animals selected such that the distribution of their body weight and plasmatic lipid levels determined before the experiment were uniform. The test compounds were suspended in carboxymethylcellulose and administered by intragastric gavage at the indicated doses, once a day for 7 or 8 days. Animals had access to food and water ad libitum. At the end of the experiment the animals were weighed and sacrificed under anesthesia. Blood was collected on EDTA. Plasma was prepared by centrifugation at 3000 rpm for 20 minutes. Organs were harvested, frozen in liquid nitrogen and stored at −80° C. for subsequent analysis.
Measurement of serum lipids: Serum lipid concentrations (total cholesterol and triglycerides) were determined by a colorimetric assay (Boehringer, Mannheim, Germany) according to the supplier's instructions.

Setting [3] is: FIG. 1-9, copper alone 80 minutes.
Where [4] appears, read: FIG. 1-12, copper alone 120 minutes.

Consider `Cc1cc(/C=C/C(=O)c2ccccc2O)cc(C)c1OC(C)(C)C(=O)O` [Compound 11, 1-[2-hydroxyphenyl]-3-[3,5-dimethyl-4-carboxydimethylmethyloxyphenyl]prop-2-en-1-one], for which the “induction factor (luminescent signal relative to untreated cells)” value at human PPARα (100 μM) is 10.

`CCCCCCOc1ccc(C(=O)/C=C/c2cc(C)c(OC(C)(C)C(=O)O)c(C)c2)cc1` [Compound 33, 1-[4-hexyloxyphenyl]-3-[3,5-dimethyl-4-carboxydimethylmethyloxyphenyl]prop-2-en-1-one]: the “antioxidant properties on cell cultures (in words)” value in the test with HaCat cells (25 μM for 24 h) is recorded as “antioxidant properties”. On human PPARγ (100 μM), the maximum induction factor came to 45.6. For the same molecule, the “antioxidant properties on cell cultures (in words)” value in test [1] (25 μM for 24 h) was “antioxidant properties”. In the test on LDL (setting [3]), the “lag phase of conjugated diene formation” value was found to be 247 min. In addition, the “rate of conjugated diene formation” value in the test with LDL (FIG. 1-10, copper alone 1.9) was 0.8 nmol/min/mg of LDL. Moreover, in the test on LDL (FIG. 1-11, copper alone 298), the “maximum amount of conjugated dienes formed” value (from here on “maximum amount”) was 257 nmol per mg of LDL. In addition, the “induction factor (luminescent signal relative to untreated cells)” value on human PPARα (1 μM) was 22. Besides, at human PPARα (10 μM), the “induction factor (luminescent signal relative to untreated cells)” value is 44. Further, the “induction factor (luminescent signal relative to untreated cells)” value on human PPARα (100 μM) was found to be 77. Further, in test [2] (50 mg/kg/day for 8 days), the “cholesterol in lipoparticle subfraction (exclusion chromatography)” value (shortened to “cholesterol in lipoparticle subfraction”) was “decrease”, the plasma cholesterol result was “decrease”, the plasma triglycerides entry was “decrease” and the “triglycerides in lipoparticle subfraction (exclusion chromatography)” value is listed as “decrease”.

Consider `COc1cc(Cl)ccc1C(=O)/C=C/c1cc(C)c(OC(C)(C)C(=O)O)c(C)c1` [Compound 37, 1-[2-methyloxy-4-chlorophenyl]-3-[3,5-dimethyl-4-carboxydimethylmethyloxyphenyl]prop-2-en-1-one], for which the “lag phase of conjugated diene formation” value with LDL (setting [4]) was determined as 196 min. The “rate of conjugated diene formation” value with LDL (FIG. 1-13, copper alone 1.8) is reported as 1.49 nmol/min/mg of LDL. For the same molecule, the “maximum amount” value with LDL (FIG. 1-14, copper alone 372) was 338 nmol per mg of LDL. On human PPARα, this molecule showed a maximum induction factor of 27.

`Cc1cc(/C=C/C(=O)c2ccc(Cl)cc2)cc(C)c1OC(C)(C)C(=O)O` [Compound 17, 1-[4-chlorophenyl]-3-[3,5-dimethyl-4-carboxydimethylmethyloxyphenyl]prop-2-en-1-one] came in with a maximum induction factor at human PPARγ (10 μM) of 25. In the test with LDL (FIG. 1-1, copper alone 111 minutes), the “lag phase of conjugated diene formation” value worked out at 203 min. For the same molecule, in the test on LDL (FIG. 1-2, copper alone 2), the “rate of conjugated diene formation” value is listed as 1.7 nmol/min/mg of LDL. In addition, on human PPARα (10 μM), the “induction factor (luminescent signal relative to untreated cells)” value was 85. Moreover, at human PPARα (100 μM), the “induction factor (luminescent signal relative to untreated cells)” value is 13.8. Further, in test [2] (gavage 200 mg/kg for 7 days), the “cholesterol in lipoparticle subfraction” value is reported as “decreased”, the “plasma concentration of cholesterol” value was “decrease”, the “plasma concentration of triglycerides” value is reported as “decrease” and the “triglycerides in lipoparticle subfraction (exclusion chromatography)” value is “decreased”.

`Cc1cc(/C=C/C(=O)c2ccc(Cl)cc2O)cc(C)c1OC(C)(C)C(=O)O` [Compound 7, 1-[2-hydroxy-4-chlorophenyl]-3-[3,5-dimethyl-4-carboxydimethylmethyloxyphenyl]prop-2-en-1-one]: the “antioxidant properties on LDL oxidation by copper (in words)” value in the test on LDL (FIGS. 1-1 to 1-14) is on record as “antioxidant properties”. Moreover, the “induction factor (luminescent signal relative to untreated cells)” value at human PPARα (30 μM) was found to be 50. Moreover, in test [2] (gavage 200 mg/kg for 7 days), the “cholesterol in lipoparticle subfraction” value is given as “decreased”, the “plasma concentration of cholesterol” value is recorded as “decrease”, the “plasma concentration of triglycerides” value is “decrease” and the “triglycerides in lipoparticle subfraction (exclusion chromatography)” value is on record as “decreased”.

Regarding `COc1ccccc1C(=O)/C=C/c1cc(C)c(OC(C)(C)C(=O)O)c(C)c1` [Compound 31, 1-[2-methoxyphenyl]-3-[3,5-dimethyl-4-carboxydimethylmethyloxyphenyl]prop-2-en-1-one], the “lag phase of conjugated diene formation” value with LDL (setting [3]) stood at 139 min. Besides, in the test on LDL (FIG. 1-10, copper alone 1.9), the “rate of conjugated diene formation” value was 1.6 nmol/min/mg of LDL. The “induction factor (luminescent signal relative to untreated cells)” value on human PPARα (10 μM) is reported as 15.5.

Regarding `Cc1c(C)c2c(c(C)c1O)CCC(C)(C(=O)O)O2` (stereo not drawn) [Trolox, reference compound], the “% of oxidative reduction versus control cells” value is reported as 46% in the test on HaCat cells (compounds at 25 μM for 24 h) and 60% in test [1] (compounds at 25 μM for 24 h).

In the case of `CCCCCCCc1ccc(C(=O)/C=C/c2cc(C)c(OC(C)(C)C(=O)OC(C)(C)C)c(C)c2)cc1` [Compound 38, 1-[4-heptylphenyl]-3-[3,5-dimethyl-4-tertbutyloxycarbonyldimethylmethyloxyphenyl]prop-2-en-1-one], the “lag phase of conjugated diene formation” value in the test on LDL (setting [4]) worked out at 284 min. Moreover, the “rate of conjugated diene formation” value in the test on LDL (FIG. 1-13, copper alone 1.8) is 0.71 nmol/min/mg of LDL. In addition, the “maximum amount” value in the test with LDL (FIG. 1-14, copper alone 372) was 244 nmol per mg of LDL. Besides, the maximum induction factor at human PPARα worked out at 22.
